Reference: US20230097157A1, “Bicyclic Pyridin-2-one and pyrimidin-4-one Derivatives Useful As a Factor XIa Inhibitors” (Janssen Pharmaceutica NV, priority 2021, published 2023)
Like-named read-outs stand apart in the source and are kept apart here.

What was measured:
human plasma kallikrein = human plasma kallikrein (Homo sapiens, UniProt P03952); assay: Kallikrein inhibition assay (FLINT) utilizing a quenched AMC peptide substrate Z-Gly-Pro-Arg-AMC; assay type: biochemical; settings: kinetic (KIN) reads, read-out: Kallikrein KIN Inh IC50
Outline: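 IC50 from a 4-parameter logistic fit of % inhibition from 11 concentrations (3-fold, top 1 μM, 2% DMSO). Compound pre-incubated 30 min with 2 nM enzyme in Tris pH 7.5, NaCl, CaCl2, BSA, CHAPS, then 50 μM AMC peptide substrate added. Fluorescence (340/440 nm) followed every 5 min for 30 min at room temperature.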

Factor XIa = Factor XIa (Homo sapiens, UniProt P03951); assay: Factor XIa inhibition assay (FLINT) utilizing a fluorophore-quencher pair peptide substrate 5Fam-[…]-K5Tamra; assay type: biochemical; settings: kinetic (KIN) reads, read-out: FXIa KIN Inh IC50
Outline: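 Compounds were tested as 11-point 3-fold dilutions from 100 nM (2% DMSO). They were preincubated 30 min with FXIa in 50 mM Tris pH 7.5, 5 mM CaCl2, then 15 μM fluorophore-quencher peptide was added. Cleavage was followed at 485/520 nm over 30 min, and IC50 was derived by 4-parameter logistic fit.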

Chain of Factor XIa (P03951 388-625 limits assumed): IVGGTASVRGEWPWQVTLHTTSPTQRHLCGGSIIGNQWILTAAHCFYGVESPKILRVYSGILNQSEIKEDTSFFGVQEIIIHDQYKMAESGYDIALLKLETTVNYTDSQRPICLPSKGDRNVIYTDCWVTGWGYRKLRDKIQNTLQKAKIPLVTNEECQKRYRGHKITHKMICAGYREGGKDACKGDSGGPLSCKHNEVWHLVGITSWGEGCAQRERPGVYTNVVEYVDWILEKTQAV
Chain of Factor XIa (P03951 19-387 partner limits assumed): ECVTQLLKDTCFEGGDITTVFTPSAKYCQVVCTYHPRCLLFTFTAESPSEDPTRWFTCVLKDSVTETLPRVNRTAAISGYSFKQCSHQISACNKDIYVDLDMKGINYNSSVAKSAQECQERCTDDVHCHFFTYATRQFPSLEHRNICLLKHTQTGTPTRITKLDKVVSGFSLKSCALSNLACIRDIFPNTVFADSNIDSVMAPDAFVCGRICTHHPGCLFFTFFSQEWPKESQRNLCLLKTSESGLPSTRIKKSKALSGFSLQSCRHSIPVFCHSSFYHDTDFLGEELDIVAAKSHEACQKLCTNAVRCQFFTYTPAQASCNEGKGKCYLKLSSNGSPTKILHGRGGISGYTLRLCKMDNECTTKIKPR
Chain of human plasma kallikrein (P03952 391-638 limits assumed): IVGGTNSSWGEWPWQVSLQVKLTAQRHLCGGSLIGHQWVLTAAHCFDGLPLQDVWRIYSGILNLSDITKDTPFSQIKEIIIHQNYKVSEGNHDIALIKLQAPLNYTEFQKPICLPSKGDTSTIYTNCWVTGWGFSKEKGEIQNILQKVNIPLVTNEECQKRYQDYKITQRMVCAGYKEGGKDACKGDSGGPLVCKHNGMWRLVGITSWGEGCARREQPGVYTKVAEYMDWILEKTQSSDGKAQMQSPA
Chain of human plasma kallikrein (P03952 20-390 partner limits assumed): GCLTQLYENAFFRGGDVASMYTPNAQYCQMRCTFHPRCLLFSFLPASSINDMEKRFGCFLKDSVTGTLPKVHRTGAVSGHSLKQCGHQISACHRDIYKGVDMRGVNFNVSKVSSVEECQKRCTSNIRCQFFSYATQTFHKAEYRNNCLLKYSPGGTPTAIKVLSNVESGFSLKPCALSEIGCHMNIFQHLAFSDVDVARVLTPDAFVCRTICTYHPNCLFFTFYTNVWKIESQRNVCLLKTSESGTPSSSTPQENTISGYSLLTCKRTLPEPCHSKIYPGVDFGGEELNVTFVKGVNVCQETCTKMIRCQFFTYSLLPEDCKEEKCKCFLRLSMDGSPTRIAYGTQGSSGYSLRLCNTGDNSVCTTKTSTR

Compound | IC50 (human plasma kallikrein; values in nM) [nM] | IC50 (Factor XIa; values in nM) [nM] | IC50 (human plasma kallikrein; unit μM) [nM] | IC50 (Factor XIa; unit μM) [nM]
C[C@H]1C[C@@H](c2ncc(-c3ccnc(N)n3)[nH]2)n2c1cc(-c1c(-n3cnnn3)ccc(Cl)c1F)cc2=O [Example 20, (1S,3S)-3-(5-(2-Aminopyrimidin-4-yl)-1H-imidazol-2-yl)-7-(3-chloro-2-fluoro-6-(1H-tetrazol-1-yl)phenyl)-1-methyl-2,3-dihydroindolizin-5(1H)-one] | 295 | 19.7 | – | –
C[C@H]1C[C@@H](c2ncc(-c3cnc(F)c(N)c3)[nH]2)n2c1cc(-c1c(-n3cnnn3)ccc(Cl)c1F)cc2=O [Example 21, (1S,3S)-3-(5-(5-Amino-6-fluoropyridin-3-yl)-1H-imidazol-2-yl)-7-(3-chloro-2-fluoro-6-(1H-tetrazol-1-yl)phenyl)-1-methyl-2,3-dihydroindolizin-5(1H)-one] | 340 | 64.4 | – | –
CC(=O)Nc1ncc(-c2cnc(C3CC4(CC4)c4cc(-c5c(-n6cnnn6)ccc(Cl)c5F)cc(=O)n43)[nH]2)s1 (centres unmarked) [Example 22] | 294 | 253 | – | –
Nc1ccc(-c2cnc([C@H]3CC4(CC4)c4cc(-c5c(-n6cnnn6)ccc(Cl)c5F)cc(=O)n43)[nH]2)c(F)n1 [Example 24, (R)-3′-(5-(6-Amino-2-fluoropyridin-3-yl)-1H-imidazol-2-yl)-7′-(3-chloro-2-fluoro-6-(1H-tetrazol-1-yl)phenyl)-2′,3′-dihydro-5′H-spiro[cyclopropane-1,1′-indolizin]-5′-one] | – | – | > 10000 | 1100
C[C@H]1C[C@@H](c2ncc(-c3sc(N)nc3C(F)(F)F)[nH]2)n2c1cc(-c1c(-n3cnnn3)ccc(Cl)c1F)cc2=O [Example 27, (1S,3S)-3-(5-(2-Amino-4-(trifluoromethyl)thiazol-5-yl)-1H-imidazol-2-yl)-7-(3-chloro-2-fluoro-6-(1H-tetrazol-1-yl)phenyl)-1-methyl-2,3-dihydroindolizin-5(1H)-one] | – | 483 | 2400 | –
C[C@H]1C[C@@H](c2ncc(-c3ccc(N)nc3F)[nH]2)n2c1cc(-c1cc(Cl)ccc1-n1cnnn1)cc2=O [Example 29, (1S,3S)-3-[5-(6-amino-2-fluoro-3-pyridyl)-1H-imidazol-2-yl]-7-[5-chloro-2-(tetrazol-1-yl)phenyl]-1-methyl-2,3-dihydro-1H-indolizin-5-one] | 39.5 | 0.5 | – | –
Cc1nc(N)ccc1-c1cnc([C@@H]2C[C@@H](C)c3cc(-c4c(-n5cnnn5)ccc(Cl)c4F)cc(=O)n32)[nH]1 [Example 50, (1R,3S)-3-(5-(6-Amino-2-methylpyridin-3-yl)-1H-imidazol-2-yl)-7-(3-chloro-2-fluoro-6-(1H-tetrazol-1-yl)phenyl)-1-methyl-2,3-dihydroindolizin-5(1H)-one] | 16 | 1.4 | – | –
C[C@@H]1C[C@@H](c2ncc(-c3ccc(N)nc3Cl)[nH]2)n2c1cc(-c1c(-n3cnnn3)ccc(Cl)c1F)cc2=O [Example 58, (1R,3S)-3-(5-(6-Amino-2-chloropyridin-3-yl)-1H-imidazol-2-yl)-7-(3-chloro-2-fluoro-6-(1H-tetrazol-1-yl)phenyl)-1-methyl-2,3-dihydroindolizin-5(1H)-one] | 3.1 | 0.4 | – | –
COC(=O)Nc1ccc(-c2cnc([C@@H]3C[C@@H](C)c4cc(-c5c(-n6cnnn6)ccc(Cl)c5F)cc(=O)n43)[nH]2)cc1 [Example 65, Methyl(4-(2-((1R,3S)-7-(3-chloro-2-fluoro-6-(1H-tetrazol-1-yl)phenyl)-1-methyl-5-oxo-1,2,3,5-tetrahydroindolizin-3-yl)-1H-imidazol-5-yl)phenyl)carbamate] | 1.3 | 0.6 | – | –
CC1C[C@H](c2nc(-c3cnc(N)cn3)c[nH]2)n2c1nc(-c1c(-n3cc(C(F)(F)F)nn3)ccc(Cl)c1F)cc2=O (stereo partly drawn) [Example 79, (6R)-6-(4-(5-aminopyrazin-2-yl)-1H-imidazol-2-yl)-2-(3-chloro-2-fluoro-6-(4-(trifluoromethyl)-1H-1,2,3-triazol-1-yl)phenyl)-8-methyl-7,8-dihydropyrrolo[1,2-a]pyrimidin-4(6H)-one] | 324 | 63.5 | – | –
CC1C[C@@H](c2nc(-c3cnc(N)cn3)c[nH]2)n2c1nc(-c1c(-n3cc(C(F)(F)F)nn3)ccc(Cl)c1F)cc2=O (stereo partly drawn) [Example 80, (6S)-6-(4-(5-aminopyrazin-2-yl)-1H-imidazol-2-yl)-2-(3-chloro-2-fluoro-6-(4-(trifluoromethyl)-1H-1,2,3-triazol-1-yl)phenyl)-8-methyl-7,8-dihydropyrrolo[1,2-a]pyrimidin-4(6H)-one] | ~236 | 4.4 | – | –
Nc1nsc2cc(-c3cnc([C@@H]4CC5(CC5)c5nc(-c6c(-n7cnnn7)ccc(Cl)c6F)cc(=O)n54)[nH]3)ccc12 [Example 81, (S)-6′-(5-(3-Aminobenzo[d]isothiazol-6-yl)-1H-imidazol-2-yl)-2′-(3-chloro-2-fluoro-6-(1H-tetrazol-1-yl)phenyl)-6′,7′-dihydro-4′H-spiro[cyclopropane-1,8′-pyrrolo[1,2-a]pyrimidin]-4′-one] | 0.9 | 0.6 | – | –
C[C@H]1C[C@@H](c2nc(-c3ncc(N)nc3Cl)c[nH]2)n2c1nc(-c1c(-n3cnnn3)ccc(Cl)c1F)cc2=O [Example 93, (6S,8S)-6-(4-(5-Amino-3-chloropyrazin-2-yl)-1H-imidazol-2-yl)-2-(3-chloro-2-fluoro-6-(1H-tetrazol-1-yl)phenyl)-8-methyl-7,8-dihydropyrrolo[1,2-a]pyrimidin-4(6H)-one] | 20.8 | 0.5 | – | –

Continued by falling IC50 (Factor XIa; values in nM), values first:

IC50 (human plasma kallikrein; values in nM) [nM] | IC50 (Factor XIa; values in nM) [nM] | IC50 (human plasma kallikrein; unit μM) [nM] | IC50 (Factor XIa; unit μM) [nM] | Compound
– | 311 | 6400 | – | C[C@H]1C[C@@H](c2ncc(-c3cnnn3C)[nH]2)n2c1cc(-c1c(-n3cnnn3)ccc(Cl)c1F)cc2=O [Example 28, (1S,3S)-7-(3-Chloro-2-fluoro-6-(1H-tetrazol-1-yl)phenyl)-1-methyl-3-(5-(1-methyl-1H-1,2,3-triazol-5-yl)-1H-Imidazol-2-yl)-2,3-dihydroindolizin-5(1H)-one]
142 | 53.8 | – | – | Nc1nsc2cc(-c3cnc([C@H]4CC5(CC5)c5nc(-c6c(-n7cnnn7)ccc(Cl)c6F)cc(=O)n54)[nH]3)ccc12 [Example 82, (R)-6′-(5-(3-Aminobenzo[d]isothiazol-6-yl)-1H-imidazol-2-yl)-2′-(3-chloro-2-fluoro-6-(1H-tetrazol-1-yl)phenyl)-6′,7′-dihydro-4′H-spiro[cyclopropane-1,8′-pyrrolo[1,2-a]pyrimidin]-4′-one]
– | 22.6 | 1300 | – | Cc1nc(N)sc1-c1cnc([C@@H]2C[C@H](C)c3cc(-c4c(-n5cnnn5)ccc(Cl)c4F)cc(=O)n32)[nH]1 [Example 26, (1S,3S)-3-(5-(2-Amino-4-methylthiazol-5-yl)-1H-imidazol-2-yl)-7-(3-chloro-2-fluoro-6-(1H-tetrazol-1-yl)phenyl)-1-methyl-2,3-dihydroindolizin-5(1H)-one]
240 | 5 | – | – | C[C@H]1C[C@@H](c2ncc(-c3cnc(N)s3)[nH]2)n2c1cc(-c1c(-n3cnnn3)ccc(Cl)c1F)cc2=O [Example 23, (1S,3S)-3-(5-(2-Aminothiazol-5-yl)-1H-imidazol-2-yl)-7-(3-chloro-2-fluoro-6-(1H-tetrazol-1-yl)phenyl)-1-methyl-2,3-dihydroindolizin-5(1H)-one]
14.1 | 0.6 | – | – | Nc1ccc(-c2cnc([C@@H]3CC4(CC4)c4cc(-c5c(-n6cnnn6)ccc(Cl)c5F)cc(=O)n43)[nH]2)c(F)n1 [Example 25, (S)-3′-(5-(6-Amino-2-fluoropyridin-3-yl)-1H-imidazol-2-yl)-7′-(3-chloro-2-fluoro-6-(1H-tetrazol-1-yl)phenyl)-2′,3′-dihydro-5′H-spiro[cyclopropane-1,1′-indolizin]-5′-one]
3.6 | 0.4 | – | – | C[C@@H]1C[C@@H](c2ncc(-c3ccc(N)nc3F)[nH]2)n2c1cc(-c1c(-n3cnnn3)ccc(Cl)c1F)cc2=O [Example 66, (1R,3S)-3-(5-(6-Amino-2-fluoropyridin-3-yl)-1H-imidazol-2-yl)-7-(3-chloro-2-fluoro-6-(1H-tetrazol-1-yl)phenyl)-1-methyl-2,3-dihydroindolizin-5(1H)-one]
20.6 | 0.4 | – | – | C[C@H]1C[C@@H](c2ncc(-c3ccc(N)nc3F)[nH]2)n2c1cc(-c1c(-n3cnnn3)ccc(Cl)c1F)cc2=O [Example 67, (1S,3S)-3-(5-(6-Amino-2-fluoropyridin-3-yl)-1H-imidazol-2-yl)-7-(3-chloro-2-fluoro-6-(1H-tetrazol-1-yl)phenyl)-1-methyl-2,3-dihydroindolizin-5(1H)-one]
3.5 | 0.2 | – | – | COC(=O)Nc1ccc(-c2cnc([C@@H]3C[C@H](C)c4cc(-c5c(-n6cnnn6)ccc(Cl)c5F)cc(=O)n43)[nH]2)cc1 [Example 63, Methyl(4-(2-((1S,3S)-7-(3-chloro-2-fluoro-6-(1H-tetrazol-1-yl)phenyl)-1-methyl-5-oxo-1,2,3,5-tetrahydroindolizin-3-yl)-1H-imidazol-5-yl)phenyl)carbamate]
7.3 | 0.1 | – | – | C[C@H]1C[C@@H](c2[nH]c(-c3ccc(N)nc3F)nc2F)n2c1cc(-c1c(-n3cnnn3)ccc(Cl)c1F)cc2=O [Example 34, (1S,3S)-3-(2-(6-Amino-2-fluoropyridin-3-yl)-4-fluoro-1H-imidazol-5-yl)-7-(3-chloro-2-fluoro-6-(1H-tetrazol-1-yl)phenyl)-1-methyl-2,3-dihydroindolizin-5(1H)-one]
